# Test results from article PMC11472058, “Trinucleotide cap analogs with triphosphate chain modifications: synthesis, properties, and evaluation as mRNA capping reagents” (Nucleic Acids Research, 2024).
# Legend:
# Human Dcp2 = target: T1, Human Dcp2 (Homo sapiens, UniProt Q8IU60); test: RNA decapping assay with recombinant hDcp2; format: biochemical; settings: fraction of decapped RNA after 30 min of incubation with hDcp2, 27-nt RNA capped with the analog, 37 °C; triplicates ± SD
# T1 construct: made in house; host or cells: E. coli
# Procedure: Human Dcp2 was expressed in E. coli and purified as described previously ([52]). Short 27 nt-capped RNAs (24.2 ng) were diluted with decapping buffer (50 mM Tris–HCl pH 8.0, 50 mM NH4Cl, 0.01% NP-40, 1 mM DTT, 5 mM MgCl2 and 2 mM MnCl2; 2.9 μl of freshly prepared 10 × Buffer) and the final volume was adjusted to 29 μl with ultrapure RNase free water. 4.2 ng (5 μl) of the solution was taken out as time zero reference and diluted with 5 μl loading dye (5 M urea, 44% formamide, 20 mM EDTA, 0.03% bromophenol blue, 0.03% xylene cyanol). The remaining RNAs (20 ng/24 μl) were subjected to 10 nM hDcp2 (250 nM, 1 μl) and the mixtures were incubated at 37°C for 1 h. At defined time points (5, 15, 30 and 60 min), 4 ng of RNA (5 μl) were taken out and the reactions were quenched by adding an equal volume of loading dye. RNAs were resolved electrophoretically on denaturing 15% acrylamide:bisacrylamide 19:1/7 M urea/1 × TBE gel, stained with SYBR Gold (Invitrogen) and visualized using a Typhoon FLA 9500 (GE Healthcare). The decapping progress was determined for each time point by densitometry analysis of the gels, as a ratio between the intensity of the band corresponding to capped RNA and the sum of the intensity of bands from capped and uncapped RNAs. The percentages of remaining capped RNA were then plotted as a function of time.
# The RNAs used to determine the capping efficiencies were also useful to study the susceptibility of capped RNA to decapping by hDcp2, the catalytic subunit of the major human mRNA decapping complex Dcp1/Dcp2, which releases m^7GDP and 5′-monophosphorylated RNA (in this case the 26-nt pApG-RNA24; Figure 4C). The progress of decapping at different time points (5, 15, 30 and 60 min) was monitored by HR-PAGE followed by densitometric analysis of the gels (Figure 4C, triplicates of gels are shown in Supplementary Figure S2), and the fraction of remaining capped RNA (27-nt) was plotted as a function of time (Figure 4D-G). […] For better visualization, the data of modified capped RNAs were grouped according to the type of modification present at the 5′ end and presented in separate graphs (Figure 4E–G). To quantify the relative susceptibility to hDcp2, we compared the decapping levels at the 30 min time point (Table 1). For RNAs capped with β-S-triphosphate analogs (1–6, Figure 4E, Table 1), we observed a significant difference in susceptibility to hDcp2 between RP and SP isomers, independent of the methylation pattern.
# C57BL/6 mice = test: In vivo translation efficacy of hEPO-encoding mRNA-LNPs (serum hEPO ELISA); settings: 1 μg mRNA i.v., 4, 8, 24 and 48 h
# Procedure: Two reporters were selected to determine in vivo protein production: firefly luciferase (FLuc) and human erythropoietin (hEPO). The mRNA encoding each gene was obtained by IVT using T7 RNA polymerase for co-transcriptional capping with m^7Gppp^5′SAmpG and m^7GpppAmpG as the reference cap structure. 500 μl or 1000 μl of the IVT mix (for obtaining mRNA encoding hEPO or FLuc, respectively) contained following components at indicated final concentration: transcription buffer with 2 mM spermidine and Bis-Tris pH 6.5, 1 U/μl RNase inhibitor (RiboLock, ThermoFisher Scientific), 5 mM ATP, CTP and UTP, 4 mM GTP, 10 mM DTT, 25 mM MgCl2, 0.002 U/μl inorganic pyrophosphatase (ThermoFisher Scientific), 10 mM m^7GpppAmpG or m^7Gppp^5’SAmpG, 40 ng/μl linearized plasmid as the DNA template and 0.125 μg/μl T7 RNA polymerase (in-house prepared). All components were gently mixed by pipetting and incubated for one hour at 37°C. After DNA template removal, obtained mRNA was initially purified using oligo(dT)25 resin, as previously described, and concentrated by ultrafiltration (Amicon Ultra-15 50K or 100K, Millipore) prior loading on preparative column. […] Eluate quality was analyzed on 1 × TBE 1.2% agarose gel, and the fractions containing mRNA of the highest purity were combined, desalted by ultrafiltration (Amicon Ultra-15 50K or 100K, Millipore), and precipitated. […]
structure (smiles),measurement,setting,value
"CO[C@@H]1[C@H](OP(=O)(O)OC[C@H]2O[C@@H](n3cnc4c(=O)[nH]c(N)nc43)[C@H](O)[C@@H]2O)[C@@H](CSP(=O)([O-])OP(=O)(O)OP(=O)(O)OC[C@H]2O[C@@H](n3c[n+](C)c4c(O)nc(N)nc43)[C@H](O)[C@@H]2O)O[C@H]1n1cnc2c(N)ncnc21 [Compound 8, m^7Gppp^5’SAmpG]",Susceptibility to hDcp2 (@30 min),Human Dcp2,0.64 ± 0.11
same,serum hEPO protein expression versus m^7GpppAmpG-capped mRNA (in words),C57BL/6 mice; MC3 LNP,slight increase in protein expression
same,serum hEPO protein expression versus m^7GpppAmpG-capped mRNA (in words),C57BL/6 mice; SM-102 LNP,no significant differences
